Values of other authors, collected in patent US20070154935A1, “HUMAN OBESITY SUSCEPTIBILITY GENE AND USES THEREOF” (INTEGRAGEN, priority 2002, published 2007).

Legend:
[1] = system: healthy controls; settings: intranasal application
[2] = system: massively obese child with leptin deficiency mutation; settings: one child with leptin deficiency mutation

Row | Substance | body fat mass [1] | plasma leptin concentrations [1] | weight [1] | treatment outcome of morbid obesity [2]
1 | adrenocorticotropin4-10 (MEHFRWG; Corticotropin; UniProt P01189 141-147, looked up, fragment) [ACTH4-10] | reduced | reduced | reduced | –
2 | recombinant leptin: recombinant leptin given to a child with a leptin deficiency mutation | – | – | – | treated successfully
